In patent publication US11352338B2, “Substituted isoindolinones” (BioTheryX, Inc., priority 2018, dated 2022):

Columns and labels:
[1] = test system: IL-6; experiment: IL-6 inhibition, LPS-induced PBMCs or CD14+ monocytes, Meso Scale assay; assay type: cell-based; conditions: LPS 100 ng/mL 18-24 h, read-out: % Inhibition compared to DMSO, IL-6; for inhibition at 1 µM: tested at 1 μM; for inhibition at 10 µM: tested at 10 μM
Method: (§1) Either frozen primary blood mononuclear cells (PBMCs) or frozen CD14+ mobilized peripheral blood monocytes were purchased from AllCells (PB003F, Normal Peripheral Blood MNC (Alameda, Calif.)). Cells were quick thawed, washed 1-time with RPMI-1640 (10% FBS/1% Pen-Strep) and plated in 96 well plates at 200,000 cells per well. Cells were pretreated with DMSO only or with the indicated compound for 1 h and then induced with 100 ng/mL lipopolysaccharide (LPS) for 18-24 h. The supernatant was analyzed for IL-1β, IL-6, and TNFα, using Meso Scale assay according to manufacturer's protocol. The negative control wells were treated with DMSO.
(§2) IL-1β, IL-6 and TNFα activities were tested at two different concentrations (1 μM and 10 μM) and the results are shown in Tables 2 and 3 respectively.

[2] = test system: IL-1β; experiment: IL-1β inhibition, LPS-induced PBMCs or CD14+ monocytes, Meso Scale assay; assay type: cell-based; conditions: LPS 100 ng/mL 18-24 h, read-out: % Inhibition compared to DMSO, IL-1β; for inhibition at 1 µM: tested at 1 μM; for inhibition at 10 µM: tested at 10 μM
Method: as §1, §2

[3] = test system: IL-2; experiment: IL-2 inhibition assay, anti-CD3 (OKT3) stimulated PBMCs, Mesoscale IL-2 analysis; assay type: cell-based, human; conditions: for fold induction at 1 µM / fold induction at 10 µM: Homo sapiens, PBMC, PBMCs on anti-CD3, 24 h, fold difference from DMSO control, read-out: IL-2, % Induction compared to DMSO
Method: For the IL-2 analysis, 96 well plates were precoated with 1 μg/mL anti-human CD3 antibody (OKT3, eBioscience Inc., San Diego, Calif.). After washing with PBS, the indicated compound was added (50 μL/well) followed by PBMCs diluted at 3-4 million cells/mL (150 μL/well). Plates were incubated for 24 h and the supernatants collected for Mesoscale IL-2 analysis. IL-2 activity is measured as fold difference from the DMSO control. […]
In Table 4, the fold-change values are reported as “A”, “B”, “C”, or “D”. “A” represents a fold-change value of equal to or less than 0.5 (value≤0.5); “B” represents a fold-change value of more than 0.5 and equal to or less than 1 (0.5<value≤1); “C” represents a fold-change value of more than 1 and less than 1.5 (1<value<1.5); and “D” represents a fold-change value of equal to or more than 1.5 (value≥1.5).

[4] = biological target: T1, PDE6D (Homo sapiens, UniProt O43924+Q96SW2); experiment: Western blot, degradation of cellular PDE6D in MV-4-11 cells; assay type: cell-based; conditions: for Dmax at 1 µM: MV4-11, tested at 1 μM, MV-4-11 cells, 6-8 hours, read-out: % Degradation compared to DMSO, PDE6D
T1 construct: endogenous in cells; host or cells: MV-4-11
T1 sequence (O43924 whole entry): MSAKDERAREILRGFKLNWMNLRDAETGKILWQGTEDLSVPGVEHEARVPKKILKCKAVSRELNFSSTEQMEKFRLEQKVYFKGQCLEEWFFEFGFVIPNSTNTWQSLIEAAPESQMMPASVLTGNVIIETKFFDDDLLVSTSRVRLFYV
T1 sequence (Q96SW2 whole entry): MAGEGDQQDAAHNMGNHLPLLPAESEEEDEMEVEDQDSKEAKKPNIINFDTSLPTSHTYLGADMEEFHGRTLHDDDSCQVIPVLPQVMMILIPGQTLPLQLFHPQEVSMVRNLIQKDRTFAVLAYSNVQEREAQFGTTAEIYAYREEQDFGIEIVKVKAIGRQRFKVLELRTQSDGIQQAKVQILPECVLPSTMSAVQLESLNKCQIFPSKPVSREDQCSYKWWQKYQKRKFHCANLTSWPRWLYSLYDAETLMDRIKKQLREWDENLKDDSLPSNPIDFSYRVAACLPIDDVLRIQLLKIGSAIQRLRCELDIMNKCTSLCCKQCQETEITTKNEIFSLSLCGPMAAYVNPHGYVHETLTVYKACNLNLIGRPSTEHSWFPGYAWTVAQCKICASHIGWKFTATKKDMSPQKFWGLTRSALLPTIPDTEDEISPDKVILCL
T1 sequence (Q16531 whole entry partner): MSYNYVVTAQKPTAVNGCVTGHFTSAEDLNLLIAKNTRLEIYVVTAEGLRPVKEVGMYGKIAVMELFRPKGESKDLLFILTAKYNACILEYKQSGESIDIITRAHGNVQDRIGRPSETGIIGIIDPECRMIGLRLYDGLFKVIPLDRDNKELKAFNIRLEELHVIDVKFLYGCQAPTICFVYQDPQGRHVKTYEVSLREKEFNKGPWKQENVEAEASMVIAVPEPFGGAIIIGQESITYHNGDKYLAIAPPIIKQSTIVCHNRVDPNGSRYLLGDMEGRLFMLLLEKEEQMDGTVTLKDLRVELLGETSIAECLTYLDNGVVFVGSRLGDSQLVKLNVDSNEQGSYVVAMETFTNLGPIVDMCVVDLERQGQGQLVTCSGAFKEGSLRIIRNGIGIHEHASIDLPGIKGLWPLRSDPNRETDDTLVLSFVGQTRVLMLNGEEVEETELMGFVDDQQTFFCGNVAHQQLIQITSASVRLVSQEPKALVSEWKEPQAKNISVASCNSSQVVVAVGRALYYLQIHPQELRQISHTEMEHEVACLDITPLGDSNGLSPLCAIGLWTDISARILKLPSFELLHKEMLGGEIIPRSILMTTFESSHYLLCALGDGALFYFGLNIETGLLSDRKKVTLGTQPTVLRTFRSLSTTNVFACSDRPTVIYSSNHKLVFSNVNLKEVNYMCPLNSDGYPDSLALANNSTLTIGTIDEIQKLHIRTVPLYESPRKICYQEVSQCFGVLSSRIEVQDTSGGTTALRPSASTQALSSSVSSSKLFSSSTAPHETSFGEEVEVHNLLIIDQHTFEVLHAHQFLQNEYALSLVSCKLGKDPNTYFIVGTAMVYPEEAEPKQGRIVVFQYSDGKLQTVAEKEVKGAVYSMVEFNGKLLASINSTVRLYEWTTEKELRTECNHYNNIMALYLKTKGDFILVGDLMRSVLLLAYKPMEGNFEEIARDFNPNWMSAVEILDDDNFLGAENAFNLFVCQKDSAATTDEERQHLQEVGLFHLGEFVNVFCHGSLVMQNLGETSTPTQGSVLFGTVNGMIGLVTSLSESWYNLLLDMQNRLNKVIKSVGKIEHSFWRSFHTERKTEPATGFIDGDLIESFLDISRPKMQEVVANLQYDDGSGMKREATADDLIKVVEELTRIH
Method: (§3) MV-4-11 cells were grown in RPMI 1640 media supplemented with 10% fetal bovine serum, streptomycin and penicillin.
(§4) Cells were cultured at approximately 10^6 cells per mL and incubated in DMSO or the indicated compounds for 6-8 hours. Whole cell extracts were prepared using RIPA lysis buffer according to manufacturer's protocol (Pierce). Briefly, 4×10^6 cells were washed once in PBS, the cell pellets were resuspended in RIPA lysis buffer and allowed to incubate for 15 minutes on ice. Cells debris was removed by centrifugation and the cleared whole cell lysates were transferred to new tubes for further analysis.
(§5) For Western blot analysis, whole cell protein extracts were separated on 4-12% SDS-polyacrylamide gels, transferred to nitrocellulose and probed with the indicated primary antibodies. Membranes were subsequently washed and probed with the appropriate IRDye secondary antibodies (LI-COR). The signal was detected using the Odyssey Imaging System (LI-COR).
(§6) The following antibodies were used in these studies: Anti-PDE6D antibody: Santa Cruz Biotechnology, sc-166854 (Dallas, Tex.); Anti-Ikaros: Abcam, ab191394 (Cambridge, Mass.); anti-CK1α antibody: Abcam, ab108296 (Cambridge, Mass.); β-Actin (8H10D10) mouse monoclonal antibody: Cell Signaling Technology, #3700 (Danvers, Mass.); IRDye 680RD Goat anti-rabbit antibody: LI-COR, 926-68071 (Lincoln, Nebr.); and IRDye 800CW Goat anti-mouse antibody: LI-COR, 926-32210 (Lincoln, Nebr.).
(§7) The % degradation values are reported as “A”, “B”, “C”, or “D.” “A” represents a % degradation value of less than 25% (value<25%); “B” represents a % degradation value of equal to or more than 25% and less than 50% (25%≤value<50%); “C” represents a % degradation value of equal to or more than 50% and less than 75% (50%≤value<75%); and “D” represents a % degradation value of equal to or more than 75% (value≥75%). […] was used as control.

[5] = biological target: T2, Ikaros (Homo sapiens, UniProt Q13422+Q96SW2); experiment: Western blot, degradation of cellular Ikaros in MV-4-11 cells; assay type: cell-based; conditions: MV4-11, tested at 1 μM, 6-8 hours, read-out: % Degradation compared to DMSO, Ikaros
T2 construct: endogenous in cells; host or cells: MV-4-11
T2 sequence (Q13422 whole entry): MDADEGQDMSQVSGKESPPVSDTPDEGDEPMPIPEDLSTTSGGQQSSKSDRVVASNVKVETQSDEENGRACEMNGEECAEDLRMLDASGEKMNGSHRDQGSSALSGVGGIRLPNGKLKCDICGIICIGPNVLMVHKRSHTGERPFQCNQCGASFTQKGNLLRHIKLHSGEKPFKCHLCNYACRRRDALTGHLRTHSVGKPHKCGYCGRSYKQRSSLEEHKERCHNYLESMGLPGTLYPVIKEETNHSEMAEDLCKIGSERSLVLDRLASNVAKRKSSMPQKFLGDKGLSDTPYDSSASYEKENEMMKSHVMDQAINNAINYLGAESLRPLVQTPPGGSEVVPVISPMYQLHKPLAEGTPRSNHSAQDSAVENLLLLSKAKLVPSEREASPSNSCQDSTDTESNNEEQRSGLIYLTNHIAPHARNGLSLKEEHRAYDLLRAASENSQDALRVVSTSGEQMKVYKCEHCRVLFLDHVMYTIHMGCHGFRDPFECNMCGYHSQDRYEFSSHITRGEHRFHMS
T2 sequence (Q96SW2 whole entry): as the sequence (Q96SW2 whole entry) above
T2 sequence (Q16531 whole entry partner): as the sequence (Q16531 whole entry partner) above
Method: as §3, §4, §5, §6, §7

[6] = test system: TNFα; experiment: TNFα inhibition, LPS-induced PBMCs or CD14+ monocytes, Meso Scale assay; assay type: cell-based; conditions: LPS 100 ng/mL 18-24 h, read-out: % Inhibition compared to DMSO, TNFα; for inhibition at 1 µM: tested at 1 μM; for inhibition at 10 µM: tested at 10 μM
Method: as §1, §2

[7] = biological target: T3, CK1α (Homo sapiens, UniProt P48729+Q96SW2); experiment: Western blot, degradation of cellular CK1α in MV-4-11 cells; assay type: cell-based; conditions: MV4-11, tested at 1 μM, 6-8 hours, read-out: % Degradation compared to DMSO, CK1α
T3 construct: endogenous in cells; host or cells: MV-4-11
T3 sequence (P48729 whole entry): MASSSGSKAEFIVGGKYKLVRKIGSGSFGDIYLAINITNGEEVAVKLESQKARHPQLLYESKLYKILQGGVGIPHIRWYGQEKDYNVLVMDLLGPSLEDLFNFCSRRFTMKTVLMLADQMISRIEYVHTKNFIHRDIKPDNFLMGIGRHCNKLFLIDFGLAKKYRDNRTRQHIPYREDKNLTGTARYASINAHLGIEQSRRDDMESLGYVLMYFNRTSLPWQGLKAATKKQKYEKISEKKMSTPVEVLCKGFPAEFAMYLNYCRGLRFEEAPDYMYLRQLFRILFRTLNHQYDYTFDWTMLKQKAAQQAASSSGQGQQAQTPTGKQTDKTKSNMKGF
T3 sequence (Q96SW2 whole entry): as the sequence (Q96SW2 whole entry) above
T3 sequence (Q16531 whole entry partner): as the sequence (Q16531 whole entry partner) above
Method: as §3, §4, §5, §6, §7

SMILES | Dmax at 1 µM [4] [%] | Dmax at 1 µM [5] [%] | Dmax at 1 µM [7] [%] | inhibition at 1 µM [1] [%] | inhibition at 10 µM [1] [%] | inhibition at 1 µM [2] [%] | inhibition at 10 µM [2] [%] | fold induction at 1 µM [3] | fold induction at 10 µM ([3]; 10 μM) | inhibition at 1 µM [6] [%] | inhibition at 10 µM [6] [%] | effect on IL-2 (in words) ([3]; 10 μM) | IL-2, % Induction compared to DMSO ([3]; 10 μM, comparison with comparative compound B) | % Degradation of PDE6D ([4]; 1 μM, comparison with comparative compound A)
C[C@H](c1cccc2c1CN(C1CCC(=O)NC1=O)C2=O)C(F)(F)F (stereo partly shown) [Compound 31] | < 25 | 50 to 75 | 25 to 50 | < 10 | < 10 | < 10 | < 10 | 0.5 to 1 | 0.5 to 1 | < 10 | 10 to 25 | – | – | –
O=C1CCC(N2C(=O)c3cccc(C4CCCC4)c3C2=O)C(=O)N1 (stereo not shown) [Compound 10, 4-cyclopentyl-2-(2,6-dioxopiperidin-3-yl)isoindoline-1,3-dione] | 50 to 75 | 25 to 50 | < 25 | < 10 | 10 to 25 | < 10 | 10 to 25 | 1 to 1.5 | 0.5 to 1 | 10 to 25 | > 50 | – | – | –
O=C1CCC(N2Cc3c(ccc(F)c3C3CCCC3)C2=O)C(=O)N1 (stereo not shown) [Compound 24] | 25 to 50 | < 25 | < 25 | < 10 | < 10 | < 10 | < 10 | 1 to 1.5 | 1 to 1.5 | 10 to 25 | < 10 | – | – | –
CCC(C)c1cc(F)cc2c1CN(C1CCC(=O)NC1=O)C2=O (stereo not shown) [Compound 33, 3-(4-(sec-butyl)-6-fluoro-1-oxoisoindolin-2-yl)piperidine-2,6-dione] | ≥ 75 | < 25 | ≥ 75 | < 10 | – | < 10 | – | ≤ 0.5 | – | 25 to 50 | – | – | – | –
C[C@@H](c1cc(F)cc2c1CN(C1CCC(=O)NC1=O)C2=O)C(F)(F)F (stereo partly shown) [Compound 22] | ≥ 75 | < 25 | ≥ 75 | < 10 | 10 to 25 | < 10 | 10 to 25 | ≤ 0.5 | ≤ 0.5 | < 10 | 25 to 50 | strong inhibition of IL-2 (downregulation) | A (a fold-change value of equal to or less than 0.5 (value≤0.5)) | D (a % degradation value of equal to or more than 75% (value≥75%))
O=C1CCC(N2Cc3c(cc(F)cc3C3CCCCC3)C2=O)C(=O)N1 (stereo not shown) [Compound 3] | ≥ 75 | 25 to 50 | 50 to 75 | < 10 | < 10 | < 10 | < 10 | ≤ 0.5 | ≤ 0.5 | < 10 | < 10 | – | – | –

More lines, main results first:

Dmax at 1 µM [4] [%] | Dmax at 1 µM [5] [%] | Dmax at 1 µM [7] [%] | SMILES | inhibition at 1 µM [1] [%] | inhibition at 10 µM [1] [%] | inhibition at 1 µM [2] [%] | inhibition at 10 µM [2] [%] | fold induction at 1 µM [3] | fold induction at 10 µM ([3]; 10 μM) | inhibition at 1 µM [6] [%] | inhibition at 10 µM [6] [%] | effect on IL-2 (in words) ([3]; 10 μM) | IL-2, % Induction compared to DMSO ([3]; 10 μM, comparison with comparative compound B) | % Degradation of PDE6D ([4]; 1 μM, comparison with comparative compound A)
25 to 50 | < 25 | < 25 | CCC1(N2Cc3c(cc(F)cc3C3CCCC3)C2=O)CCC(=O)NC1=O (stereo not shown) [Compound 18, 3-(4-Cyclopentyl-6-fluoro-1-oxoisoindolin-2-yl)-3-ethylpiperidine-2,6-dione] | < 10 | < 10 | < 10 | 10 to 25 | 1 to 1.5 | 0.5 to 1 | < 10 | 25 to 50 | – | – | –
< 25 | < 25 | < 25 | O=C1CCC(N2Cc3c(C4CCCC4)ccc(F)c3C2=O)C(=O)N1 (stereo not shown) [Compound 27] | 10 to 25 | < 10 | < 10 | < 10 | 0.5 to 1 | 0.5 to 1 | 10 to 25 | 25 to 50 | – | – | –
≥ 75 | 25 to 50 | 50 to 75 | O=C1CCC(N2Cc3c(cc(F)cc3C3CCC3)C2=O)C(=O)N1 (stereo not shown) [Compound 20] | < 10 | < 10 | < 10 | < 10 | ≤ 0.5 | ≤ 0.5 | 10 to 25 | 25 to 50 | – | – | –
≥ 75 | < 25 | < 25 | O=C1CCC(N2C(=O)c3cc(F)cc(C4CCCC4)c3C2=O)C(=O)N1 (stereo not shown) [Compound 12] | < 10 | < 10 | < 10 | < 10 | 0.5 to 1 | 0.5 to 1 | 10 to 25 | 25 to 50 | – | – | –
≥ 75 | < 25 | 50 to 75 | O=C1CCC(N2Cc3c(cc(F)c(F)c3C3CCCC3)C2=O)C(=O)N1 (stereo not shown) [Compound 16] | < 10 | < 10 | < 10 | < 10 | 0.5 to 1 | 0.5 to 1 | < 10 | 10 to 25 | – | – | –
≥ 75 | 25 to 50 | ≥ 75 | O=C1CCC(N2Cc3c(cc(F)cc3C3CC3)C2=O)C(=O)N1 (stereo not shown) [Compound 5] | < 10 | < 10 | 25 to 50 | > 50 | ≤ 0.5 | ≤ 0.5 | 25 to 50 | > 50 | – | – | –
≥ 75 | < 25 | < 25 | O=C1CC(N2Cc3c(cc(F)cc3C3CCCC3)C2=O)C(=O)N1 (stereo not shown) [Compound 19, 3-(4-Cyclopentyl-6-fluoro-1-oxoisoindolin-2-yl)pyrrolidine-2,5-dione] | < 10 | < 10 | < 10 | < 10 | 0.5 to 1 | 0.5 to 1 | < 10 | < 10 | – | – | –
